Reference: patent US9915647B2 (priority 2011, dated 2018)

Tested on: INS1E cells
Format: cell-based, rat

## CC[C@H]1/C=C/C=C/C[C@@H](C)[C@H](O)[C@@](C)(O)C(=O)[C@@H](C)[C@H](O)[C@@H](C)C(=O)[C@@H](C)[C@H](O)[C@@H](C)/C=C/C(=O)O[C@@H]2[C@H](C)[C@H](CC1)O[C@]1(CC[C@H](C)[C@H](C[C@@H](C)O)O1)[C@H]2C [oligomycin]
  portion of ADP stimulated respiration that is oligomycin sensitive: ~75%

## C[C@@H]1CC[C@@]2(OC1)O[C@H]1[C@@H](O)[C@H]3[C@@H]4CC[C@H]5C[C@@H](O[C@@H]6O[C@H](CO)[C@H](O[C@@H]7O[C@H](CO)[C@@H](O)[C@H](O[C@@H]8OC[C@@H](O)[C@H](O)[C@H]8O)[C@H]7O[C@@H]7O[C@H](CO)[C@H](O)[C@H](O[C@@H]8O[C@H](CO)[C@@H](O)[C@H](O)[C@H]8O)[C@H]7O)[C@H](O)[C@H]6O)[C@H](O)C[C@]5(C)[C@H]4CC[C@]3(C)[C@H]1[C@@H]2C [digitonin]
  digitonin concentration giving maximal and sustained ADP-stimulated respiration: 0.01%
